For orientation: pEC50 means the negative decadic logarithm of the EC50, by convention in mol/L. A word on the pKi: it is the Ki on a negative log10 scale, so that one unit is a factor of ten.

For assay [1], the target named is T1, Orexin/Hypocretin receptor type 1 (Homo sapiens) (UniProt O43613).
T1 sequence (whole entry): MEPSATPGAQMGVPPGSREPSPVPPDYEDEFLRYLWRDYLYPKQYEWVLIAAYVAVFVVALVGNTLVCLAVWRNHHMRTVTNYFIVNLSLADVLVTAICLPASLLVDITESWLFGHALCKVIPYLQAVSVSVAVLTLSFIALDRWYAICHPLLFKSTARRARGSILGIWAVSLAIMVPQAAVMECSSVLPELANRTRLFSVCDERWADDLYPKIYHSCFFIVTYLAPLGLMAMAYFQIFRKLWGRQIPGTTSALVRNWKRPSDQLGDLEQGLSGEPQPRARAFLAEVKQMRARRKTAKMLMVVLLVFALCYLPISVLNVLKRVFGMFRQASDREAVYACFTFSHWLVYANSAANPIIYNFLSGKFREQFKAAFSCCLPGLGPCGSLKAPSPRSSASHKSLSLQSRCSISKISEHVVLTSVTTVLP
The experiment in a line: Agonist activity at OX1R (unknown origin) expressed in CHO cells at 10 uM by cell-based calcium assay relative to Orexin A. It counts as functional.

Assay [2] deals with T2, Orexin receptor type 2 (Homo sapiens) (UniProt O43614).
T2 sequence (whole entry): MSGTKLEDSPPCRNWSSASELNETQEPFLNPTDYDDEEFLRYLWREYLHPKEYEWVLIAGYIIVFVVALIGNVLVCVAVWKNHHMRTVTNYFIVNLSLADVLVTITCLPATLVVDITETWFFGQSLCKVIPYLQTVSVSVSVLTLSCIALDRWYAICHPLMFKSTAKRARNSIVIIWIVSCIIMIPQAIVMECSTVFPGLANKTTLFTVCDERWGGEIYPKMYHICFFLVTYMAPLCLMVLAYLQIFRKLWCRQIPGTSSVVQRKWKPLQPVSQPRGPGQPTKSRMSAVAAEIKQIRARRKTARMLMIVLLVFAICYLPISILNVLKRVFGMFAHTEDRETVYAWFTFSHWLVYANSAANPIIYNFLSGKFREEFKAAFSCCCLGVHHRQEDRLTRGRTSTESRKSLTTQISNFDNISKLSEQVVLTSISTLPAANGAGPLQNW
The experiment in a line: Agonist activity at OX2R (unknown origin) expressed in CHO cells at 10 uM by cell-based calcium assay relative to orexin A. It counts as functional.

The target of assay [3] is T3, Orexin/Hypocretin receptor type 1 (Homo sapiens, UniProt O43613).
T3 sequence (O43613 whole entry): T1 sequence (whole entry)
The experiment in a line: Agonist activity at OX1R (unknown origin) expressed in CHO cells by cell-based calcium assay. Type of assay: functional.

The target in another assay is T4, Orexin receptor type 2 (Homo sapiens, UniProt O43614).
T4 sequence (O43614 whole entry): T2 sequence (whole entry)
The experiment in a line: Agonist activity at OX2R (unknown origin) expressed in CHO cells by cell-based calcium assay. Type of assay: functional.

The target of assay [4] is T3, Orexin/Hypocretin receptor type 1. The experiment in a line: Antagonist activity at human OX1R expressed in CHO-K1 cells assessed as inhibition of orexin-A-induced increase in calcium mobilization preincubated for 15 mins followed orexin-A stimulation by Fura-2-AM dye based fluorescence assay. For orientation: Calcium flux is commonly read through the fluorescence of an indicator in the cells.

The species named for the next assay is Homo sapiens. The experiment in a line: Selectivity ratio of EC50 for agonist activity at human OX1R expressed in CHO-K1 cells to EC50 for agonist activity at human OX2R expressed in CHO-K1 cells. Type of assay: cell-based.

pEC50, pKi: −log10 of the molar value. Some results are limits rather than exact numbers.

Take `COc1ccc(-c2cccc(C(=O)N(C)C)c2)cc1S(=O)(=O)Nc1ccc2ccc(NC(=O)c3ccccc3)cc2c1`: the Efficacy in assay [1] and in assay [2] was less than 5% each time. Also, the negative logarithm of the EC50 (pEC50) (in assay [3]; at Orexin receptor type 2) was less than 5.00 in each case.
With `COc1ccc(C(=O)Nc2cccc([C@]3(C)O[C@@H]4CO[C@H]5N4[C@@H]3O[C@@]5(C)c3cccc(NC(=O)c4ccc(OC)cc4)c3)c2)cc1`, the pKi in assay [4] is 8.28.
For `COc1ccc(C(=O)Nc2cccc([C@]3(C)O[C@H]4CO[C@@H]5N4[C@H]3O[C@@]5(C)c3cccc(NC(=O)c4ccc(OC)cc4)c3)c2)cc1`, in assay [4], the pKi was 8.66.
Turning to `COC(=O)N1CCC[C@H](NS(C)(=O)=O)[C@@H]1CO[C@H]1CC[C@@H](c2ccccc2)CC1`, in the assay filed under Homo sapiens, the Ratio EC50 was greater than 5000.
Turning to `COc1ccccc1C(=O)N(C)c1cccc2ccc(NS(=O)(=O)c3cc(-c4cccc(C(=O)N(C)C)c4)ccc3OC)cc12`, the negative-log EC50 (pEC50) (in assay [3]; at Orexin receptor type 2) was less than 5.00 throughout.
In the case of `COc1ccc(-c2cccc(C(=O)N(C)C)c2)cc1S(=O)(=O)Nc1ccc2ccc(N(C)C(=O)c3ccccc3)cc2c1`, the Efficacy in assay [1] and in assay [2] was less than 5% each time. Moreover, the pEC50 (in assay [3]; at Orexin receptor type 2) was less than 5.00 in each case.
